Patent US8546588B2, “Substituted hydroxamic acids and uses thereof” (Millennium Pharmaceuticals, Inc., priority 2010, dated 2013)

Target: T1, purified human HDAC6 (Homo sapiens, UniProt Q9UBN7)
T1 construct: purchased BPS Bioscience 5006
T1 sequence (Q9UBN7 1-1215): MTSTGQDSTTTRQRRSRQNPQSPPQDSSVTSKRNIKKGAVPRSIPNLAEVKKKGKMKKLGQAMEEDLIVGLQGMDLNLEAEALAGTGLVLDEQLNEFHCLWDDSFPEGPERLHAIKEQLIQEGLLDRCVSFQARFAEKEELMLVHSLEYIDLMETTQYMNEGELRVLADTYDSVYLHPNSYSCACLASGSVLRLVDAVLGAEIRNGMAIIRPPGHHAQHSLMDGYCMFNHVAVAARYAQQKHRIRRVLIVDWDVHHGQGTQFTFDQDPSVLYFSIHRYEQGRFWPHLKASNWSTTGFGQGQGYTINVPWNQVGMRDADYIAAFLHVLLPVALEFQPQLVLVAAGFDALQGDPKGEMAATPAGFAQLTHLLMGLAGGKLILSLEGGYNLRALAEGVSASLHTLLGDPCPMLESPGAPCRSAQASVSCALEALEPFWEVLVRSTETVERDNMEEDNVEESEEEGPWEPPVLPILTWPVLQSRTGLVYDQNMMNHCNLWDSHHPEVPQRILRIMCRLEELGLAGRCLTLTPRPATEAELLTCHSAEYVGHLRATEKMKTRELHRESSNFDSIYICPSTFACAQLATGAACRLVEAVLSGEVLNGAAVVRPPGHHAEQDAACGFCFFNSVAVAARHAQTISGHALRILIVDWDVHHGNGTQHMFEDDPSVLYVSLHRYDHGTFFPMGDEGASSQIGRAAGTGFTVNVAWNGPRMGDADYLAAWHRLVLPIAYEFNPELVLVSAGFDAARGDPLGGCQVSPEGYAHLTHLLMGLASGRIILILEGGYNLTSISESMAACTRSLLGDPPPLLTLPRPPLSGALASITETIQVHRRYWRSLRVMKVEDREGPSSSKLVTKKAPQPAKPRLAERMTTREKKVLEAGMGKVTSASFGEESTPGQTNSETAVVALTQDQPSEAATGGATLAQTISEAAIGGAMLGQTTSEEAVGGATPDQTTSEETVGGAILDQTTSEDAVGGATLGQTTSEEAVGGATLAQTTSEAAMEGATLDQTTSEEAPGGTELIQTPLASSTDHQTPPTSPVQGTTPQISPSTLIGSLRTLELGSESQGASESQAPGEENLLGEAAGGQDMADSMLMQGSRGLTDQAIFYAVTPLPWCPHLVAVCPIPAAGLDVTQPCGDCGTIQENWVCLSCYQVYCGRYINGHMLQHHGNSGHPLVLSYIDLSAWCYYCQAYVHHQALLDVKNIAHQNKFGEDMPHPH
Test: HDAC6 Enzyme Assay
Assay type: biochemical
Conditions: substrate Ac-Arg-Gly-Lys(Ac)-AMC peptide, 1 hour at 30° C.
Description: To measure the inhibition of HDAC6 activity, purified human HDAC6 (BPS Bioscience; Cat. No. 5006) is incubated with substrate Ac-Arg-Gly-Lys(Ac)-AMC peptide (Bachem Biosciences; Cat. No. I-1925) for 1 hour at 30° C. in the presence of test compounds or vehicle DMSO control. The reaction is stopped with the HDAC inhibitor trichostatin A (Sigma; Cat. No. T8552) and the amount of Arg-Gly-Lys-AMC generated is quantitated by digestion with trypsin (Sigma; Cat. No. T1426) and subsequent measurement of the amount of AMC released using a fluorescent plate reader (Pherastar; BMG Technologies) set at Ex 340 nm and Em 460 nm. Concentration response curves are generated by calculating the fluorescence increase in test compound-treated samples relative to DMSO-treated controls, and enzyme inhibition (IC50) values are determined from those curves.

| IC50 [nM] | SMILES |
| --- | --- |
| > 500 | C[C@@H](NC(=O)C(C)(C)C)c1ncc(C(=O)NO)s1 [Compound I-166, 2-{(1R)-1-[(2,2-dimethylpropanoyl)amino]ethyl}-N-hydroxy-1,3-thiazole-5-carboxamide] |
| < 100 | Cc1nc(-c2ccccn2)sc1C(=O)N[C@H](C)c1ncc(C(=O)NO)s1 [Compound I-167, N-((1R)-1-{5-[(hydroxyamino)carbonyl]-1,3-thiazol-2-yl}ethyl)-4-methyl-2-pyridin-2-yl-1,3-thiazole-5-carboxamide] |
| < 100 | Cc1nc(-c2ccccn2)sc1C(=O)N[C@@H](C)c1ncc(C(=O)NO)s1 [Compound I-168, N-((1S)-1-{5-[(hydroxyamino)carbonyl]-1,3-thiazol-2-yl}ethyl)-4-methyl-2-pyridin-2-yl-1,3-thiazole-5-carboxamide] |
| 100 to 500 | COc1ccc(C(=O)N[C@H](C)c2ncc(C(=O)NO)s2)cc1 [Compound I-169, N-hydroxy-2-{(1R)-1-[(4-methoxybenzoyl)amino]ethyl}-1,3-thiazole-5-carboxamide] |
| > 500 | C[C@@H](NC(=O)C12CC3CC(CC(C3)C1)C2)c1cc(C(=O)NO)on1 [Compound I-170, 3-{(1R)-1-[(1-adamantylcarbonyl)amino]ethyl}-N-hydroxyisoxazole-5-carboxamide] |
| > 500 | C[C@H](NC(=O)C1(C)CCCCC1)c1ncc(C(=O)NO)s1 [Compound I-171, N-hydroxy-2-((1S)-1-{[(1-methylcyclohexyl)carbonyl]amino}ethyl)-1,3-thiazole-5-carboxamide] |
| > 500 | C[C@@H](NC(=O)C12CC3CC(CC(C3)C1)C2)c1ncc(C(=O)NO)s1 [Compound I-172, 2-((1R)-1-{[1-adamantylcarbonyl]amino}ethyl)-N-hydroxy-1,3-thiazole-5-carboxamide] |
| < 100 | C[C@H](NC(=O)c1nc2ccccc2n1C)c1ncc(C(=O)NO)s1 [Compound I-173, N-((1S)-1-{5-[(hydroxyamino)carbonyl]-1,3-thiazol-2-yl}ethyl)-1-methyl-1H-benzimidazole-2-carboxamide] |
| 100 to 500 | C[C@@H](NC(=O)c1cccn1C)c1ncc(C(=O)NO)s1 [Compound I-174, N-hydroxy-2-((1R)-1-{[(1-methyl-1H-pyrrol-2-yl)carbonyl]amino}ethyl)-1,3-thiazole-5-carboxamide] |
| 100 to 500 | COc1ccc(C(=O)N[C@@H](C)c2ncc(C(=O)NO)s2)cc1 [Compound I-175, N-hydroxy-2-{(1S)-1-[(4-methoxybenzoyl)amino]ethyl}-1,3-thiazole-5-carboxamide] |
| > 500 | C[C@@H](NC(=O)c1cc2ccccc2s1)c1cc(C(=O)NO)on1 [Compound I-176, 3-{(1R)-1-[(1-benzothien-2-ylcarbonyl)amino]ethyl}-N-hydroxyisoxazole-5-carboxamide] |
| 100 to 500 | C[C@H](NC(=O)c1ccc(S(C)(=O)=O)cc1)c1ncc(C(=O)NO)s1 [Compound I-177, N-hydroxy-2-((1S)-1-{[4-(methylsulfonyl)benzoyl]amino}ethyl)-1,3-thiazole-5-carboxamide] |
| < 100 | C[C@@H](NC(=O)c1cc2ccccc2s1)c1ncc(C(=O)NO)s1 [Compound I-178, 2-{(1R)-1-[(1-benzothien-2-ylcarbonyl)amino]ethyl}-N-hydroxy-1,3-thiazole-5-carboxamide] |
| > 500 | C[C@H](NC(=O)C12CC3CC(CC(C3)C1)C2)c1ncc(C(=O)NO)s1 [Compound I-179, 2-((1S)-1-{[1-adamantylcarbonyl]amino}ethyl)-N-hydroxy-1,3-thiazole-5-carboxamide] |
| < 100 | C[C@H](NC(=O)c1cc2ccccc2s1)c1ncc(C(=O)NO)s1 [Compound I-180, 2-{(1S)-1-[(1-benzothien-2-ylcarbonyl)amino]ethyl}-N-hydroxy-1,3-thiazole-5-carboxamide] |
| > 500 | C[C@@H](NC(=O)c1cc2ccccc2o1)c1cc(C(=O)NO)on1 [Compound I-181, (R)-3-(1-(benzofuran-2-carboxamido)ethyl)-N-hydroxyisoxazole-5-carboxamide] |
| > 500 | C[C@@H](NC(=O)C(C)(C)C)c1cc(C(=O)NO)on1 [Compound I-182, 3-{(1R)-1-[(2,2-dimethylpropanoyl)amino]ethyl}-N-hydroxyisoxazole-5-carboxamide] |
| > 500 | C[C@H](NC(=O)C(C)(C)C)c1ncc(C(=O)NO)s1 [Compound I-183, 2-{(1S)-1-[(2,2-dimethylpropanoyl)amino]ethyl}-N-hydroxy-1,3-thiazole-5-carboxamide] |
